In the NIST ThermoML archive (doi:10.1021/je0500375) one finds activity coefficient data, which are given here for 16 compounds.

± gives the expanded uncertainty stated by the source.

This series in a line: activity coefficient (dimensionless); of the first substance listed, at infinite dilution; xn = mol fraction of the nth substance listed. The note with it: 101.33 kPa, Liquid, Chromatography, x1 = 0.

Take `C#CCCCCC` [1-heptyne] + CCCCCCCCOS(=O)(=O)[O-].CCCCn1cc[n+](C)c1: the activity coefficient runs as follows: (298.15 K) 2.66 ± 0.18; (313.15 K) 2.85 ± 0.19; (328.15 K) 3.08 ± 0.21.

Consider `C#CCCCC` [1-hexyne] + CCCCCCCCOS(=O)(=O)[O-].CCCCn1cc[n+](C)c1, for which the activity coefficient (298.15 K) was determined as 2.25 ± 0.15, the activity coefficient (313.15 K) was 2.38 ± 0.16 and the activity coefficient (328.15 K) is 2.56 ± 0.17.

As to `C#CCCCCCC` [1-octyne] + CCCCCCCCOS(=O)(=O)[O-].CCCCn1cc[n+](C)c1, the activity coefficient was 3.25 ± 0.22 (298.15 K), 3.42 ± 0.23 (313.15 K) and 3.65 ± 0.25 (328.15 K).

As for `c1ccccc1` [benzene] + CCCCCCCCOS(=O)(=O)[O-].CCCCn1cc[n+](C)c1, the activity coefficient amounted to 1.42 ± 0.09 (298.15 K), 1.44 ± 0.09 (313.15 K) and 1.45 ± 0.1 (328.15 K).

Turning to `C1CCCCCC1` [cycloheptane] + CCCCCCCCOS(=O)(=O)[O-].CCCCn1cc[n+](C)c1, the activity coefficient runs as follows: (298.15 K) 5.43 ± 0.37; (313.15 K) 5.52 ± 0.38; (328.15 K) 5.68 ± 0.39.

With `C1CCCCC1` [cyclohexane] + CCCCCCCCOS(=O)(=O)[O-].CCCCn1cc[n+](C)c1, the activity coefficient came to 4.92 ± 0.34 (298.15 K), 5.02 ± 0.34 (313.15 K) and 5.17 ± 0.35 (328.15 K).

Consider `C1CCCC1` [cyclopentane] + CCCCCCCCOS(=O)(=O)[O-].CCCCn1cc[n+](C)c1, for which the activity coefficient came out at 4.09 ± 0.28 (298.15 K), 4.24 ± 0.29 (313.15 K) and 4.39 ± 0.3 (328.15 K).

In the case of `CCCCCCC` [heptane] + CCCCCCCCOS(=O)(=O)[O-].CCCCn1cc[n+](C)c1, the activity coefficient is, setting by setting: (298.15 K) 8.27 ± 0.56; (313.15 K) 8.58 ± 0.59; (328.15 K) 9 ± 0.61.

Consider `C=CCCCC` [hex-1-ene] + CCCCCCCCOS(=O)(=O)[O-].CCCCn1cc[n+](C)c1, for which the activity coefficient runs as follows: (298.15 K) 5.43 ± 0.37; (313.15 K) 5.76 ± 0.39; (328.15 K) 6.13 ± 0.42.

Take `CCCCCC` [hexane] + CCCCCCCCOS(=O)(=O)[O-].CCCCn1cc[n+](C)c1: the activity coefficient runs as follows: (298.15 K) 7.21 ± 0.49; (313.15 K) 7.59 ± 0.52; (328.15 K) 7.98 ± 0.54.

As for `CO` [methanol] + CCCCCCCCOS(=O)(=O)[O-].CCCCn1cc[n+](C)c1, the activity coefficient is 0.386 ± 0.033 (298.15 K), 0.369 ± 0.033 (313.15 K) and 0.36 ± 0.033 (328.15 K).

As for `C=CCCCCCC` [oct-1-ene] + CCCCCCCCOS(=O)(=O)[O-].CCCCn1cc[n+](C)c1, the activity coefficient by setting is: (298.15 K) 7.38 ± 0.5; (313.15 K) 7.53 ± 0.51; (328.15 K) 7.88 ± 0.54.

On to `CCCCCCCC` [octane] + CCCCCCCCOS(=O)(=O)[O-].CCCCn1cc[n+](C)c1, for which the activity coefficient came out at 9.63 ± 0.66 (298.15 K), 9.96 ± 0.68 (313.15 K) and 10.3 ± 0.7 (328.15 K).

With `CCCCC` [pentane] + CCCCCCCCOS(=O)(=O)[O-].CCCCn1cc[n+](C)c1, the activity coefficient (298.15 K) came to 6.63 ± 0.45 and the activity coefficient (313.15 K) was determined as 7.14 ± 0.49.

Regarding `ClC(Cl)(Cl)Cl` [tetrachloromethane] + CCCCCCCCOS(=O)(=O)[O-].CCCCn1cc[n+](C)c1, the activity coefficient worked out at 1.65 ± 0.11 (298.15 K), 1.74 ± 0.12 (313.15 K) and 1.85 ± 0.12 (328.15 K).

As for `Cc1ccccc1` [toluene] + CCCCCCCCOS(=O)(=O)[O-].CCCCn1cc[n+](C)c1, the activity coefficient reads like this: (298.15 K) 1.98 ± 0.13; (313.15 K) 2.02 ± 0.14; (328.15 K) 2.08 ± 0.14.
